Numbers after ± are expanded uncertainties.
Settings: for surface tension liquid-gas: Pendant drop shape; for mass density: 101.33 kPa, Liquid, Vibrating tube method

surface tension liquid-gas (288.15 K) [mN/m] | surface tension liquid-gas (318.15 K) [mN/m] | SMILES | surface tension liquid-gas (293.15 K) [mN/m] | surface tension liquid-gas (298.15 K) [mN/m] | surface tension liquid-gas (303.15 K) [mN/m] | surface tension liquid-gas (308.15 K) [mN/m] | surface tension liquid-gas (313.15 K) [mN/m] | mass density (288.15 K) [kg/m3] | mass density (293.15 K) [kg/m3] | mass density (298.15 K) [kg/m3] | mass density (303.15 K) [kg/m3] | mass density (308.15 K) [kg/m3] | mass density (313.15 K) [kg/m3] | mass density (318.15 K) [kg/m3] | mass density (328.15 K) [kg/m3]
– | – | BrCCCBr [1,3-dibromopropane] | 39.66 ± 0.72 | 38.95 ± 0.71 | 38.33 ± 0.7 | 37.6 ± 0.68 | 37.12 ± 0.68 | – | – | – | – | – | – | – | –
– | – | ClCCCCCl [1,4-dichlorobutane] | 33.73 ± 0.62 | 33.15 ± 0.61 | 32.55 ± 0.6 | 32.1 ± 0.59 | 31.59 ± 0.58 | – | – | – | – | – | – | – | –
– | – | BrCBr [dibromomethane] | 38.5 ± 0.7 | 37.76 ± 0.69 | 37.09 ± 0.68 | 36.32 ± 0.66 | 35.55 ± 0.65 | – | – | – | – | – | – | – | –
– | – | BrCCCCCBr [1,5-dibromopentane] | 39.37 ± 0.71 | 38.65 ± 0.7 | 38.16 ± 0.69 | 37.6 ± 0.68 | 37.23 ± 0.68 | – | – | – | – | – | – | – | –
– | – | ClCCCCCCCl [1,6-dichlorohexane] | 35 ± 0.71 | 34.31 ± 0.69 | 33.73 ± 0.68 | 33.09 ± 0.67 | 32.7 ± 0.66 | – | – | – | – | – | – | – | –
– | – | ClCCCCl [1,3-dichloropropane] | 31.22 ± 0.57 | 30.77 ± 0.57 | 30.2 ± 0.56 | 29.36 ± 0.54 | 28.7 ± 0.53 | 1189.09 ± 1.1 | 1184.88 ± 1.1 | 1178.97 ± 1.1 | 1173.1 ± 1.1 | 1167.26 ± 1.1 | 1161.46 ± 1.1 | 1154.88 ± 1.1 | 1142.62 ± 1.1
– | – | BrCCCCCCBr [1,6-dibromohexane] | 38.92 ± 0.71 | 38.36 ± 0.7 | 37.78 ± 0.69 | 37.21 ± 0.68 | 36.63 ± 0.67 | – | – | – | – | – | – | – | –
73.43 ± 1.2 | – | O [water] | 72.84 ± 1.2 | 72.14 ± 1.2 | – | – | – | – | – | – | – | – | – | – | –
26.34 ± 0.49 | 24.12 ± 0.45 | CCCCCCO [hexan-1-ol] | 26.06 ± 0.48 | 25.71 ± 0.48 | 25.34 ± 0.47 | 24.9 ± 0.5 | 24.52 ± 0.46 | – | – | 815.18 ± 1 | – | – | – | – | –
– | – | BrCCCCBr [1,4-dibromobutane] | 39.91 ± 0.72 | 39.46 ± 0.72 | 38.92 ± 0.71 | 38.29 ± 0.7 | 37.67 ± 0.68 | – | – | – | – | – | – | – | –
– | – | ClCCCCCCl [1,5-dichloropentane] | 35.02 ± 0.64 | 34.43 ± 0.63 | 33.85 ± 0.62 | 33.22 ± 0.61 | 32.78 ± 0.6 | 1103.31 ± 1 | 1100.06 ± 1 | 1095.01 ± 1 | 1089.95 ± 1 | 1084.89 ± 1 | 1079.84 ± 1 | 1074.67 ± 1 | 1064.63 ± 1
– | – | BrCCBr [1,2-dibromoethane] | 38.81 ± 0.7 | 38.07 ± 0.69 | 37.48 ± 0.68 | 36.75 ± 0.67 | 36.1 ± 0.66 | – | – | – | – | – | – | – | –
– | – | ClCCCl [1,2-dichloroethane] | 28 ± 0.52 | 27.57 ± 0.51 | 27.06 ± 0.5 | 26.54 ± 0.49 | 26.02 ± 0.48 | – | – | – | – | – | – | – | –
– | 23.28 ± 0.44 | CCCCCO [pentan-1-ol] | 25.17 ± 0.47 | 24.85 ± 0.46 | 24.4 ± 0.5 | 23.96 ± 0.45 | 23.62 ± 0.44 | – | – | 810.84 ± 1 | – | – | – | – | –
